Results: patent publication US20250129033A1, “METAP2 INHIBITORS AND USES THEREOF” (Yissum Research Development Company of the Hebrew …, priority 2022, published 2025)
“Also recorded” adds a separate entry of the source.

Key:
[1] = target: T1, recombinant human methionine aminopeptidase 2 (Homo sapiens, UniProt P50579); test: Enzymatic activity assay on recombinant human MetAp2 (L-Met-AMC); assay type: biochemical; conditions: 2.5 μM, over the course of 1 h, vs untreated control
T1 construct: purchased bio-techne 3795-ZN
T1 sequence (P50579 whole entry): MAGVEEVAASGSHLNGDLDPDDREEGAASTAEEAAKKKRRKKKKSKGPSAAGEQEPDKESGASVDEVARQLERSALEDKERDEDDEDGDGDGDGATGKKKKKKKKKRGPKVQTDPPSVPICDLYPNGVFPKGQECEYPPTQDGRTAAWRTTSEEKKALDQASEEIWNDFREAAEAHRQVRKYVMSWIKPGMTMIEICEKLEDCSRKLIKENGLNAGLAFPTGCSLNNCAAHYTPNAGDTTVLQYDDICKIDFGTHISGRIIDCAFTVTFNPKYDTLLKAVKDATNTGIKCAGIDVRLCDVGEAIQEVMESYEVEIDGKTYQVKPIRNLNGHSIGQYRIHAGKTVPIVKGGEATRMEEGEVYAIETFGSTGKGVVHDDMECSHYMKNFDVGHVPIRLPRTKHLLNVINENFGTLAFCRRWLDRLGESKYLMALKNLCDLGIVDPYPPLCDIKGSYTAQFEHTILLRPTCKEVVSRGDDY
Procedure: The enzymatic assay was performed using 5 μg protein per sample as described previously. To test the inhibitory effect of AD-3281, at the same conditions, AD-3281 was also added to 0.33 μg recombinant human methionine aminopeptidase 2 obtained from bio-techne (USA, 3795-ZN), samples were incubated with the inhibitor for 15 min at RT before adding the substrate. The reaction was started by adding 250 μM L-Met-AMC as a substrate. An increase of fluorescence, due to substrate degradation during the enzymatic assay, was measured every 20 seconds for 1 h and 30 min at 37° C. using a plate reader (Wallac 1420 VICTOR plate reader, Perkin-Elmer Life Sciences, USA). The assay was carried out on a 96-well plate on ice and it was performed in an assay buffer (pH 7.5) containing 50 mM HEPES, 0.1 mM CoCl2, 100 mM NaCl and 1 mg/mL PEG 6000, in a final volume of 100 μL.
(§1) A375 and MDA-MB-231 were sub-cultivated using trypsin, then centrifuged and counted. […] The protein content of the supernatant was determined according to the Bradford protein assay using BSA as the standard. […] An increase of fluorescence, due to substrate degradation during the enzymatic assay, was measured every 20 seconds for 1 h and 30 min at 37° C. using a plate reader (Wallac 1420 VICTOR plate reader, Perkin-Elmer Life Sciences, USA). […]

[2] = target: T2, MetAp2 in A375 cancer cells (Homo sapiens, UniProt P50579); test: MetAp2 enzymatic activity in A375 cell homogenate; assay type: biochemical; conditions: 2.5 μM
T2 construct: host or cells: A375 cell homogenate (RIPA supernatant, 5 µg protein)
T2 sequence (P50579 whole entry): as above
Procedure: A375 and MDA-MB-231 were sub cultivated using trypsin, then centrifuge and counted. To obtain a homogenate containing an equivalent cell number, cells were resuspended in an appropriate volume of cold RIPA containing a protease inhibitor cocktail. Insoluble cellular components were removed by centrifugation at 15,000 RPM for 10 min at 4° C. The protein content of the supernatant was determined according to the Bradford protein assay using BSA as the standard.
The enzymatic assay was performed using 5 μg protein per sample as described previously. […] An increase of fluorescence, due to substrate degradation during the enzymatic assay, was measured every 20 seconds for 1 h and 30 min at 37° C. using a plate reader (Wallac 1420 VICTOR plate reader, Perkin-Elmer Life Sciences, USA). […]
as §1

A375 cells = test: A375 proliferation assay (MTT); assay type: cell-based, human; conditions: 1-100 μM, 72 h, dose-dependent
Procedure: Human Umbilical Vein Endothelial Cells (HUVECs) or human melanoma cell line (A375) were used to validate the ability of the compound to suppress endothelial cell proliferation. Each 1500 A375 cells/well or 2000 HUVEC cells/well were seeded in a 96 wells plate and allowed to adhere to the plate for few hours. Compounds were then added to the cells at concentration range of 0.05-10 μM (<0.1% DMSO). Cells were then incubated for additional 72 hours and MTT was done (2 to 3 h at 37° C.). The dye was solubilized with DMSO and the absorbance was determined at 570 nm.
A375 were seeded (2000 cells/well) exposed to TNP-470 and to arrange concentrations of AD-3281 (1-100 μM) cells were incubated for 72 h at 37° C., After incubation, MTT (Sigma Aldrich, St. Louis City, MO, USA) was added (0.5 mg/mL) into each well for viability detection and incubated at 37° C. and 5% CO2 for 40 minutes. The absorbance was measured at 540 nm using a plate reader (Wallac 1420 VICTOR plate reader, Perkin-Elmer Life Sciences, USA). The proliferation of HUVECs was measured under the same conditions. HUVECs were seeded (3000 cells/well) in 96-well plates […]

HUVECs = test: Endothelial tube formation assay; assay type: cell-based, human; conditions: 12 h
Procedure: To evaluate the angiogenic effect of AD-3281, an endothelial tube formation assay was performed. HUVECs were kept in serum-free Dulbecco's modified Eagle's medium media, collected, seeded in 0.1% gelatin coated 96-well plate and monitored for 12 h using a microscope. Images were taken from 6 separated wells and analyzed using Incucyte® Live-Cell Analysis Systems.

[3] = test system: A375 3D multicellular spheroids; test: A375 3D spheroid viability (WST1); assay type: cell-based, human; conditions: 50 μM free inhibitor, 96 h
Procedure: 3D Petri Dish 35-well array (Microtissues Inc., RI, USA) was used to create 2% agarose hydrogel micro-wells. Each well contained 5,000 cells of A375 cells. 30 minutes after seeding, 1 ml of medium was added and templates were incubated at 37° C. for 24 hours. […] The absorbance was measured at 450 nm using a plate reader (Wallac 1420 VICTOR plate reader, Perkin-Elmer Life Sciences, USA).

ERG study in mice = assay type: in vivo; conditions: Low dose 12 μg per eye and High dose 48 μg per eye

inhibition of rhMetAp2 enzymatic activity [1]: 95%
inhibition of MetAp2 activity in A375 after 10 minutes ([2]; 10 minutes of exposure): Significant inhibition
reduction of MetAp2 enzymatic activity in A375 ([2]; over the course of 1 h): 64%
Structure (SMILES): COC1C(OC(=O)CC23CC4CC(CC(C4)C2)C3)CCC2(CO2)C1C1(C)OC1CC=C(C)C (centres unmarked) [AD-3281, Fumagillol-1-adamantylacetate]
reduction in A375 cancer cell proliferation (A375 cells): 37-63%
HUVEC tube formation (HUVECs; 50 μM): narrower tubes compared with untreated control but without preventing network formation
HUVEC tube formation (HUVECs; 100 μM): impaired tubes; also recorded: prevent tube formation
effect of free inhibitor on spheroids viability [3]: did not show a significant reduction; also recorded: slight reduction of spheroids viability
damage to vision (ERG) (ERG study in mice): no damage to vision
